The results in this text go back to the supplement of paper PMC6045584.

± gives the standard deviation of the averaged measurements.

Compound in one experiment: O=C(CCCCCCC(=O)Nc1ccccc1)NO [VORINOSTAT]
Put plainly: surviving fraction relative to DMSO-only wells; higher = less growth inhibition. As to conditions: exposure time: 5 days. Summed up:
(§1)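 Viability values are CellTiter-Glo luminescence readings, given as surviving fraction against the median of DMSO-only wells. The readings were taken after 10 minutes at room temperature, following five days of continuous exposure to inhibitors at 0.5, 1, 5, 10, 50, 100, 500 and 1000 nM that began 24 hours after log-phase tumour cell lines were seeded at 250–500 cells per well in 384-well plates. Every line was screened three times and kept only if replicate Pearson r >0.7 and median Z' >0.3.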

Compound in experiment [1]: COc1ccc(-c2cc3c(C)nc(N)nc3n([C@H]3CC[C@H](OCCO)CC3)c2=O)cn1
The experiment is described as above. As to conditions: exposure time: 5 days. Summed up:
as §1

Take SIHA CERVIX: the surviving fraction with VORINOSTAT (0.5 nM) was 0.978 ± 0.05; with VORINOSTAT (1 nM), 0.965 ± 0.018; with VORINOSTAT (5 nM), 1.07 ± 0.025; with VORINOSTAT (10 nM), 1.06 ± 0.13; with VORINOSTAT (50 nM), 1.2 ± 0.032; with VORINOSTAT (100 nM), 1.17 ± 0.13. Also, the surviving fraction with VORINOSTAT (500 nM) was determined as 1.15 ± 0.035; in the experiment with VORINOSTAT (1000 nM) it was 1 ± 0.14; in experiment [1] (0.5 nM) it was 1.01 ± 0.032; in experiment [1] (1 nM) it was 1.02 ± 0.07; in experiment [1] (5 nM), 0.974 ± 0.062; in experiment [1] (10 nM), 0.93 ± 0.063. Besides, the surviving fraction in experiment [1] (50 nM) stood at 0.656 ± 0.025; in experiment [1] (100 nM) it was 0.536 ± 0.024; in experiment [1] (500 nM), 0.232 ± 0.0035; in experiment [1] (1000 nM), 0.161 ± 0.011.
SYO1 SYNOVIAL: the surviving fraction with VORINOSTAT (0.5 nM) came to 0.942 ± 0.068; with VORINOSTAT (1 nM) it was 0.895 ± 0.083; with VORINOSTAT (5 nM), 0.945 ± 0.055; in the experiment with VORINOSTAT (10 nM), 0.836 ± 0.025; with VORINOSTAT (50 nM) it was 1.03 ± 0.088; in the experiment with VORINOSTAT (100 nM) it was 1.057 ± 0.0096. The surviving fraction with VORINOSTAT (500 nM) is 0.563 ± 0.022; with VORINOSTAT (1000 nM) it was 0.222 ± 0.012; in experiment [1] (0.5 nM), 0.961 ± 0.013; in experiment [1] (1 nM), 0.912 ± 0.021; in experiment [1] (5 nM), 0.895 ± 0.061; in experiment [1] (10 nM), 0.825 ± 0.041. Also, the surviving fraction in experiment [1] (50 nM) stood at 0.557 ± 0.0083; in experiment [1] (100 nM), 0.386 ± 0.035; in experiment [1] (500 nM), 0.118 ± 0.028; in experiment [1] (1000 nM), 0.0698 ± 0.019.
As to HT1080 SOFT TISSUE, the surviving fraction was found to be 1.02 ± 0.046 in the experiment with VORINOSTAT (0.5 nM); 1.02 ± 0.015 with VORINOSTAT (1 nM); 1.05 ± 0.039 in the experiment with VORINOSTAT (5 nM); 1.02 ± 0.034 with VORINOSTAT (10 nM); 0.951 ± 0.028 with VORINOSTAT (50 nM); 0.914 ± 0.017 with VORINOSTAT (100 nM). In addition, the surviving fraction with VORINOSTAT (500 nM) was 0.671 ± 0.048; with VORINOSTAT (1000 nM) it was 0.418 ± 0.029; in experiment [1] (0.5 nM), 1.02 ± 0.038; in experiment [1] (1 nM), 0.974 ± 0.029; in experiment [1] (5 nM), 1.001 ± 0.0067; in experiment [1] (10 nM), 0.955 ± 0.1. Also, the surviving fraction in experiment [1] (50 nM) turned out to be 0.829 ± 0.012; in experiment [1] (100 nM), 0.661 ± 0.031; in experiment [1] (500 nM) it was 0.255 ± 0.015; in experiment [1] (1000 nM), 0.161 ± 0.0072.
Regarding SG43 HEADNECK, the surviving fraction with VORINOSTAT (0.5 nM) stood at 1.08 ± 0.16; with VORINOSTAT (1 nM) it was 1.13 ± 0.12; in the experiment with VORINOSTAT (5 nM), 0.836 ± 0.23; with VORINOSTAT (10 nM), 1.03 ± 0.21; with VORINOSTAT (50 nM), 0.949 ± 0.15; with VORINOSTAT (100 nM), 1.1 ± 0.033. In addition, the surviving fraction in the experiment with VORINOSTAT (500 nM) is 1.04 ± 0.28; in the experiment with VORINOSTAT (1000 nM), 0.729 ± 0.21; in experiment [1] (0.5 nM) it was 0.954 ± 0.097; in experiment [1] (1 nM), 1 ± 0.041; in experiment [1] (5 nM), 0.747 ± 0.054; in experiment [1] (10 nM), 0.613 ± 0.06. The surviving fraction worked out at 0.506 ± 0.046 in experiment [1] (50 nM), 0.427 ± 0.032 in experiment [1] (100 nM), 0.266 ± 0.02 in experiment [1] (500 nM) and 0.168 ± 0.007 in experiment [1] (1000 nM).
As to MCF7 BREAST, the surviving fraction in the experiment with VORINOSTAT (0.5 nM) came to 0.854 ± 0.026; in the experiment with VORINOSTAT (1 nM), 0.839 ± 0.033; in the experiment with VORINOSTAT (5 nM), 0.864 ± 0.011; in the experiment with VORINOSTAT (10 nM), 0.781 ± 0.026; with VORINOSTAT (50 nM) it was 0.977 ± 0.034; with VORINOSTAT (100 nM), 0.845 ± 0.028. In addition, the surviving fraction with VORINOSTAT (500 nM) was determined as 0.742 ± 0.0093; with VORINOSTAT (1000 nM) it was 0.648 ± 0.0092; in experiment [1] (0.5 nM) it was 0.875 ± 0.029; in experiment [1] (1 nM), 0.851 ± 0.016; in experiment [1] (5 nM) it was 0.807 ± 0.027; in experiment [1] (10 nM) it was 0.764 ± 0.058. The surviving fraction in experiment [1] (50 nM) turned out to be 0.527 ± 0.0077; in experiment [1] (100 nM), 0.358 ± 0.0078; in experiment [1] (500 nM), 0.185 ± 0.0036; in experiment [1] (1000 nM), 0.181 ± 0.0076.
Turning to HELA CERVIX, the surviving fraction turned out to be 0.955 ± 0.049 with VORINOSTAT (0.5 nM); 0.942 ± 0.066 with VORINOSTAT (1 nM); 0.972 ± 0.042 with VORINOSTAT (5 nM); 0.939 ± 0.07 with VORINOSTAT (10 nM); 1.07 ± 0.057 with VORINOSTAT (50 nM); 1.06 ± 0.064 with VORINOSTAT (100 nM). Further, the surviving fraction with VORINOSTAT (500 nM) came to 1.11 ± 0.037; with VORINOSTAT (1000 nM), 1.01 ± 0.092; in experiment [1] (0.5 nM), 0.998 ± 0.04; in experiment [1] (1 nM) it was 0.989 ± 0.088; in experiment [1] (5 nM) it was 1.02 ± 0.042; in experiment [1] (10 nM) it was 1.02 ± 0.035. Besides, the surviving fraction was 1.11 ± 0.039 in experiment [1] (50 nM), 1.06 ± 0.052 in experiment [1] (100 nM), 0.4 ± 0.019 in experiment [1] (500 nM) and 0.318 ± 0.017 in experiment [1] (1000 nM).
Regarding VP229 BREAST, the surviving fraction was determined as 0.931 ± 0.099 with VORINOSTAT (0.5 nM); 1.04 ± 0.054 in the experiment with VORINOSTAT (1 nM); 1.02 ± 0.11 with VORINOSTAT (5 nM); 0.924 ± 0.033 with VORINOSTAT (10 nM); 1.1 ± 0.086 in the experiment with VORINOSTAT (50 nM); 1.04 ± 0.022 with VORINOSTAT (100 nM). Further, the surviving fraction amounted to 0.6 ± 0.11 with VORINOSTAT (500 nM); 0.352 ± 0.058 in the experiment with VORINOSTAT (1000 nM); 1.13 ± 0.11 in experiment [1] (0.5 nM); 1.07 ± 0.062 in experiment [1] (1 nM); 0.948 ± 0.046 in experiment [1] (5 nM); 0.844 ± 0.032 in experiment [1] (10 nM). For the same test system, the surviving fraction worked out at 0.513 ± 0.078 in experiment [1] (50 nM), 0.383 ± 0.071 in experiment [1] (100 nM), 0.135 ± 0.02 in experiment [1] (500 nM) and 0.0757 ± 0.018 in experiment [1] (1000 nM).
In the case of NY BONE, the surviving fraction with VORINOSTAT (0.5 nM) was 0.9877 ± 0.004; with VORINOSTAT (1 nM), 0.918 ± 0.029; with VORINOSTAT (5 nM), 0.973 ± 0.023; with VORINOSTAT (10 nM), 0.98 ± 0.033; with VORINOSTAT (50 nM), 1.037 ± 0.0042; with VORINOSTAT (100 nM) it was 0.916 ± 0.019. Moreover, the surviving fraction with VORINOSTAT (500 nM) was 0.701 ± 0.012; in the experiment with VORINOSTAT (1000 nM), 0.448 ± 0.016; in experiment [1] (0.5 nM), 0.925 ± 0.027; in experiment [1] (1 nM) it was 0.916 ± 0.038; in experiment [1] (5 nM) it was 0.909 ± 0.022; in experiment [1] (10 nM) it was 0.84 ± 0.047. For the same test system, the surviving fraction was found to be 0.668 ± 0.029 in experiment [1] (50 nM), 0.602 ± 0.028 in experiment [1] (100 nM), 0.369 ± 0.019 in experiment [1] (500 nM) and 0.317 ± 0.0068 in experiment [1] (1000 nM).
